Assays:
[1] = excess molar enthalpy (molar enthalpy of mixing); xn = mol fraction of the nth substance listed; settings: 298.15 K, 101 kPa, Liquid, 2-drop calorimetry
[2] = xn = mol fraction of the nth substance listed; settings: 101 kPa, Liquid; for speed of sound: Linear variable-path acoustic interferometer; for mass density: Vibrating tube method

Cc1ccncc1 [4-methylpyridine] + CCn1cc[n+](C)c1.F[B-](F)(F)F
[1]
Settings | excess molar enthalpy [kcal/mol]
x2 = 0.111 | -0.0311
x2 = 0.1679 | -0.0454
x2 = 0.2098 | -0.0558
x2 = 0.2387 | -0.0624
x2 = 0.2909 | -0.0731
x2 = 0.3267 | -0.0788
x2 = 0.379 | -0.0873
x2 = 0.4167 | -0.0925
x2 = 0.4834 | -0.0997
x2 = 0.5267 | -0.104
x2 = 0.5908 | -0.106
x2 = 0.615 | -0.106
x2 = 0.6786 | -0.101
x2 = 0.7234 | -0.0974
x2 = 0.7945 | -0.0841
x2 = 0.8346 | -0.0723
x2 = 0.889 | -0.0539
x2 = 0.9267 | -0.0389

[2]
Settings | mass density, 293.15 K [kg/m3] | mass density, 298.15 K [kg/m3] | speed of sound, 293.15 K [m/s] | speed of sound, 298.15 K [m/s]
x2 = 0.1211 | 1022.19 | 1017.25 | 1485 | 1464.4
x2 = 0.1734 | 1048.92 | 1043.93 | 1499.5 | 1479.3
x2 = 0.2215 | 1072.35 | 1067.26 | 1512.2 | 1492.7
x2 = 0.2738 | 1096.49 | 1091.32 | 1525 | 1506.5
x2 = 0.3226 | 1117.74 | 1112.6 | 1536.7 | 1519.3
x2 = 0.3709 | 1137.61 | 1132.52 | 1548 | 1531.8
x2 = 0.4215 | 1157.13 | 1152.2 | 1558.7 | 1543.8
x2 = 0.4721 | 1175.31 | 1170.56 | 1568.6 | 1554.4
x2 = 0.5207 | 1191.56 | 1186.91 | 1576.9 | 1564.8
x2 = 0.5728 | 1207.52 | – | 1585.7 | 1573.8
x2 = 0.6218 | 1221.15 | – | 1593.2 | 1582.3
x2 = 0.6731 | 1234.15 | – | 1600.4 | 1589.4
x2 = 0.7224 | 1245.2 | – | 1607 | 1595.7
x2 = 0.7743 | 1255.49 | – | 1613 | 1601.8
x2 = 0.8203 | 1263.45 | – | 1617.3 | 1606.3
x2 = 0.8717 | 1270.96 | – | 1622.3 | 1610.6
x2 = 0.9111 | 1275.81 | – | 1625.3 | 1613.4
x2 = 0.9312 | 1278 | – | 1626.7 | 1614.9

— the NIST ThermoML archive (doi:10.1016/j.jct.2012.07.007)
